# From US7371780B2, “Use of calphostin C to treat drug-resistant tumor cells” (priority 2003, dated 2008)
# pIC50: −log10 of the molar value.
# Experiments:
# [1] = test system: MCF-7DOX (doxorubicin-resistant) cells; assay: Clonogenic assay, MCF-7DOX cells; type: cell-based, human
# Procedure: (§1) The breast cancer cell line MCF-7 (lot HTB-22) was obtained from the American […] (ATCC) and maintained in Dulbecco's H21 medium (MEM) supplemented with 10% Fetal Bovine Serum (FBS) (HyClone, Logan, Utah) in a humidified atmosphere containing 5% CO2 at 37° C. To establish drug resistant cell lines, MCF-7 cells were grown in the presence of either paclitaxel or doxorubicin, beginning at a concentration 1000-fold below that required to kill 50% of the cells (the IC50). The drug concentration was increased 3-fold every two weeks (two passages), with an aliquot of the cells removed for storage in liquid nitrogen before each increase in concentration. Dose escalation continued until all cells died, after which the cells able to tolerate the highest concentration of drug were thawed for subsequent study. In this way, paclitaxel-resistant (MCF-7TAX) and doxorubicin-resistant (MCF-7DOX) cell lines were established. The IC50 for each drug was determined using a clonogenic assay as outlined below. The drug resistant cells were kept in culture in the presence of the maximally tolerated drug dose. Before each experiment, the cell lines were grown for two days in the absence of drug after which fresh medium containing either calphostin C (Sigma Laboratories, Oakville, ON), doxorubicin (Adriamycin PFS®, USP, Mississauga, ON) or paclitaxel (Taxol, Bristol-Myers Squibb, Montreal, QC) was added at the concentrations indicated.
# The sensitivity of MCF-7, MCF-7TAX and MCF-7DOX cells to calphostin C, paclitaxel or doxorubicin was determined using a clonogenic assay. Briefly, 2.5×10^5 cells were seeded into 25 cm^2 tissue culture flasks in Dulbecco's H21 medium supplemented with 10% FBS. The cells were allowed to grow overnight, after which the medium was removed and replaced with medium containing varying concentrations of paclitaxel, doxorubicin, or calphostin C (after 2 hours of light exposure to activate the molecule). After 24 hours, the medium (including any floating cells) was transferred to 14 ml screw-capped tubes and centrifuged at 1000 rpm for 10 min. The adherent cells were then released from their flasks by trypsin treatment and suspended in 10 ml of H21 medium. The cell suspension was transferred to the previous tube and all cells harvested by centrifugation. The cell pellet was washed one more time with drug-free medium and resuspended in 300 μl of normal growth medium containing FBS. The cells were then added to 2.7 ml of a methylcellulose solution. The methylcellulose medium was prepared by combining 70 ml of a 2.6% (w/v) methylcellulose solution [Shin-Etsu Chemical Co., Tokyo, Japan] in Iscove's medium (Princess Margaret Hospital, Toronto, ON) with 30 ml of FBS. Three ml syringes equipped with a 16-gauge needle were used for transferring the viscous medium. The mixture was vigorously vortexed for 10 s to ensure an even distribution of cells within the viscous medium. The vortexed samples were then allowed to sit for 30 min to remove air bubbles. A 1.2 ml aliquot of the cell suspension was then transferred to a 6-well plate and the cells allowed to grow until colonies of >50 cells were visible by light microscopy for the various cell lines in the absence of drug. The colonies present in 5 randomly selected fields were then counted by visual inspection.
# Calphostin C (Sigma Laboratories, Oakville, ON) was prepared as a 100 μM stock solution in dimethylsulfoxide (Sigma Laboratories, Oakville, ON) and stored at −70° C. in 100 μl aliquots. […]
# MCF-7 cells [2] = assay: Cytoplasmic shrinkage by hematoxylin/eosin staining, MCF-7; type: cell-based, human
# Procedure: (§2) For staining with hematoxylin and eosin, cells were grown in a six-well culture plate with each well containing a Snowcoat X-Tra™ microscope slide (Surgipath Laboratories, MB) immersed in 3 ml of H21 medium. When the cells reached 50% confluence, they were treated with 0-300 nM calphostin C, followed by a 2 hour exposure of the cultures to fluorescent light as described above. After light activation, the cells were placed in a 37° C. humidified incubator with 5% CO2 and incubated for an additional 22 hours. The cells were then stained with hematoxylin and eosin using a previously described procedure. Briefly, the media was removed from cell cultures and the cells that remained adhered to the slides were washed with PBS, fixed in formalin:acetone (1:2) for 2 min, and allowed to air dry for 10 min. After washing with distilled water, 250 μl of hematoxylin solution (BDH Chemicals, Toronto, ON) was placed on each slide and allowed to incubate with the cells for 5 min. The slides were then washed with distilled water, Scott's tap water (20 g MgSO4.7H2O, 1.5 g NaHCO3 in 1 L H2O), and a final wash with distilled water. The cells on the slides were then stained for 5 min in 250 μl of eosin solution (100 ml of 1% eosin, 10 ml of 1% phyloxine, 4 ml of glacial acetic acid, and 780 ml of 95% ethanol). The cells were then dehydrated by washing three times in 95% ethanol and twice in 100% ethanol. The small slide was then mounted on a standard microscope glass slide, and 10 randomly selected fields were viewed at 100× magnification and photographed. For each concentration of calphostin C, the total number of dead cells in each field was ascertained and expressed relative to the total number of cells in the field.
# MCF-7 cells [3] = assay: Drug uptake (flow cytometry / scintillation counting), MCF-7; type: cell-based, human; conditions: 100 nM calphostin C
# Procedure: (§3) FIG. 5 illustrates the effect of calphostin C (Cal-C) on drug uptake in MCF-7 (square symbols), MCF-7TAX (diamond symbols) and MCF-7DOX (triangular symbols) cells. After one-day growth, the cells were left untreated (closed symbols) or treated with 100 nM calphostin C for 2 h with light activation (open symbols). Cells were then washed and the medium replaced with medium containing 2 μM of doxorubicin (A) or [^3H]-paclitaxel (B). The cells were then trypsinized and drug accumulation measured by flow cytometry (A) or liquid scintillation counting (B) at indicated time points. The figures are representative of three independent experiments.
# MCF-7DOX cells [4] = assay: Cytoplasmic shrinkage by hematoxylin/eosin staining, MCF-7DOX; type: cell-based, human
# Procedure: as §2
# [5] = test system: MCF-7TAX (paclitaxel-resistant) cells; assay: Clonogenic assay, MCF-7TAX cells; type: cell-based, human; conditions: MCF-7TAX cells; 24 h drug; calphostin C light-activated 2 h
# Procedure: as §1
# The sensitivity of MCF-7, MCF-7TAX and MCF-7DOX cells to calphostin C, paclitaxel or doxorubicin was determined using a clonogenic assay. Briefly, 2.5×10^5 cells were seeded into 25 cm^2 tissue culture flasks in Dulbecco's H21 medium supplemented with 10% FBS. The cells were allowed to grow overnight, after which the medium was removed and replaced with medium containing varying concentrations of paclitaxel, doxorubicin, or calphostin C (after 2 hours of light exposure to activate the molecule). […] The colonies present in 5 randomly selected fields were then counted by visual inspection. […]
# [6] = test system: mouse B16BL6 melanoma cells; assay: Death and cytoplasmic vacuolization, B16BL6; type: cell-based; conditions: data not shown
# MCF-7DOX cells [7] = assay: Drug uptake, MCF-7DOX; type: cell-based, human
# Procedure: as §3
structure (smiles),measurement,setting,value
COc1c(C[C@@H](C)OC(=O)Oc2ccc(O)cc2)c2c3c(C[C@@H](C)OC(=O)c4ccccc4)c(OC)c(=O)c4c(O)cc(OC)c(c5c(OC)cc(O)c(c1=O)c52)c43 [calphostin C],pIC50,"[1]; MCF-7DOX cells, 24 h drug, calphostin C light-activated 2 h",7.19
same,fold resistance / lower sensitivity compared to MCF-7 cells,[1]; MCF-7DOX vs MCF-7,approximately 5 fold
same,concentration required for complete cytoplasmic shrinkage,MCF-7 cells [2],300 nM
same,percentage of cells exhibiting cytoplasmic shrinkage,"MCF-7 cells [2]; 25 nM calphostin C, 2 h light, 24 h",20%
same,percentage of cells exhibiting cytoplasmic shrinkage,MCF-7 cells [2]; 50 nM calphostin C,35%
same,effect on paclitaxel accumulation,MCF-7 cells [3],decreased paclitaxel accumulation
same,concentration at which cytoplasmic shrinkage was first observed,MCF-7DOX cells [4],100 nM
same,concentration required for complete cytoplasmic shrinkage,MCF-7DOX cells [4],300 nM
same,percentage of cells exhibiting cytoplasmic shrinkage,MCF-7DOX cells [4]; 25 nM calphostin C,remained unchanged
same,pIC50,[5],8.04
same,induction of death and cytoplasmic vacuolization,[6],induce both death and cytoplasmic vacuolization
same,effect on paclitaxel uptake,MCF-7DOX cells [7]; 100 nM calphostin C,little effect
same,effect on doxorubicin uptake,"MCF-7DOX cells [7]; 100 nM calphostin C 2 h with light, then 2 μM doxorubicin",little ability to re-establish doxorubicin uptake
